Measurements from the NIST ThermoML archive (doi:10.1021/je9008624).
Numbers after ± are expanded uncertainties.

How the values were obtained:
[1] = refractive index (Na D-line) (dimensionless); conditions: 298.15 K; 101.33 kPa; Liquid
[2] = 298.15 K; 101 kPa; Liquid
[3] = xn = mol fraction of the nth substance listed; conditions: 298.15 K, 101 kPa, Liquid
[4] = refractive index (Na D-line) (dimensionless); xn = mol fraction of the nth substance listed; conditions: 298.15 K, 101 kPa, Liquid

SMILES: CCCCn1cc[n+](C)c1.F[B-](F)(F)F [1-butyl-3-methylimidazolium tetrafluoroborate]
- refractive index [1]: 1.41831 ± 0.00066
- mass density [2]: 1192.78 ± 0.71 kg/m3

SMILES: CCCCn1cc[n+](C)c1.F[B-](F)(F)F [1-butyl-3-methylimidazolium tetrafluoroborate] + CO
- mass density ([3]; x2 = 0): 1192.78 ± 0.71 kg/m3
- mass density ([3]; x2 = 0.0517): 1188.58 ± 0.68 kg/m3
- mass density ([3]; x2 = 0.104): 1183.87 ± 0.66 kg/m3
- mass density ([3]; x2 = 0.1995): 1174.09 ± 0.62 kg/m3
- mass density ([3]; x2 = 0.2975): 1162.14 ± 0.57 kg/m3
- mass density ([3]; x2 = 0.3993): 1146.82 ± 0.52 kg/m3
- mass density ([3]; x2 = 0.5002): 1127.34 ± 0.48 kg/m3
- mass density ([3]; x2 = 0.599): 1102.37 ± 0.42 kg/m3
- mass density ([3]; x2 = 0.6994): 1067.86 ± 0.35 kg/m3
- mass density ([3]; x2 = 0.7997): 1016.59 ± 0.26 kg/m3
- mass density ([3]; x2 = 0.9): 934.6 ± 0.29 kg/m3
- mass density ([3]; x2 = 0.9501): 872.82 ± 0.37 kg/m3
- refractive index ([4]; x2 = 0): 1.41831 ± 0.00066
- refractive index ([4]; x2 = 0.0517): 1.41844 ± 0.00066
- refractive index ([4]; x2 = 0.104): 1.41726 ± 0.00066
- refractive index ([4]; x2 = 0.1995): 1.41454 ± 0.00066
- refractive index ([4]; x2 = 0.2975): 1.41296 ± 0.00065
- refractive index ([4]; x2 = 0.3993): 1.41485 ± 0.00065
- refractive index ([4]; x2 = 0.5002): 1.41652 ± 0.00065
- refractive index ([4]; x2 = 0.599): 1.41435 ± 0.00065
- refractive index ([4]; x2 = 0.6994): 1.40537 ± 0.00065
- refractive index ([4]; x2 = 0.7997): 1.39145 ± 0.00064
- refractive index ([4]; x2 = 0.9): 1.37496 ± 0.00064
- refractive index ([4]; x2 = 0.9501): 1.36221 ± 0.00064

SMILES: CCCCn1cc[n+](C)c1.F[B-](F)(F)F [1-butyl-3-methylimidazolium tetrafluoroborate] + COC(=O)OC
- mass density ([3]; x2 = 0): 1192.78 ± 0.71 kg/m3
- mass density ([3]; x2 = 0.051): 1191.17 ± 0.69 kg/m3
- mass density ([3]; x2 = 0.1014): 1189.24 ± 0.67 kg/m3
- mass density ([3]; x2 = 0.1987): 1184.98 ± 0.64 kg/m3
- mass density ([3]; x2 = 0.2999): 1179.76 ± 0.6 kg/m3
- mass density ([3]; x2 = 0.4012): 1173.39 ± 0.57 kg/m3
- mass density ([3]; x2 = 0.5): 1165.72 ± 0.54 kg/m3
- mass density ([3]; x2 = 0.6005): 1155.89 ± 0.5 kg/m3
- mass density ([3]; x2 = 0.7007): 1143.06 ± 0.46 kg/m3
- mass density ([3]; x2 = 0.8003): 1125.52 ± 0.41 kg/m3
- mass density ([3]; x2 = 0.9): 1100.22 ± 0.35 kg/m3
- refractive index ([4]; x2 = 0): 1.41831 ± 0.00066
- refractive index ([4]; x2 = 0.051): 1.4176 ± 0.00066
- refractive index ([4]; x2 = 0.1014): 1.41675 ± 0.00066
- refractive index ([4]; x2 = 0.1987): 1.41501 ± 0.00066
- refractive index ([4]; x2 = 0.2999): 1.41282 ± 0.00065
- refractive index ([4]; x2 = 0.4012): 1.41049 ± 0.00065
- refractive index ([4]; x2 = 0.5): 1.40796 ± 0.00065
- refractive index ([4]; x2 = 0.6005): 1.40459 ± 0.00065
- refractive index ([4]; x2 = 0.7007): 1.39931 ± 0.00064
- refractive index ([4]; x2 = 0.8003): 1.39196 ± 0.00064
- refractive index ([4]; x2 = 0.9): 1.38162 ± 0.00064

SMILES: CCOS(=O)(=O)[O-].CCn1cc[n+](C)c1 [1-ethyl-3-methylimidazolium ethyl sulfate]
- refractive index [1]: 1.47908 ± 0.00066
- mass density [2]: 1236.33 ± 0.8 kg/m3

SMILES: CCOS(=O)(=O)[O-].CCn1cc[n+](C)c1 [1-ethyl-3-methylimidazolium ethyl sulfate] + CO
- mass density ([3]; x2 = 0): 1236.33 ± 0.8 kg/m3
- mass density ([3]; x2 = 0.0487): 1232.01 ± 0.77 kg/m3
- mass density ([3]; x2 = 0.0977): 1227.32 ± 0.75 kg/m3
- mass density ([3]; x2 = 0.1978): 1216.77 ± 0.7 kg/m3
- mass density ([3]; x2 = 0.2989): 1203.48 ± 0.65 kg/m3
- mass density ([3]; x2 = 0.3991): 1186.7 ± 0.6 kg/m3
- mass density ([3]; x2 = 0.4991): 1165.38 ± 0.55 kg/m3
- mass density ([3]; x2 = 0.5993): 1137.34 ± 0.48 kg/m3
- mass density ([3]; x2 = 0.7002): 1098.94 ± 0.4 kg/m3
- mass density ([3]; x2 = 0.7999): 1043.62 ± 0.31 kg/m3
- mass density ([3]; x2 = 0.9002): 953.54 ± 0.27 kg/m3
- mass density ([3]; x2 = 0.9502): 884.35 ± 0.36 kg/m3
- refractive index ([4]; x2 = 0): 1.47908 ± 0.00066
- refractive index ([4]; x2 = 0.0487): 1.47873 ± 0.00066
- refractive index ([4]; x2 = 0.0977): 1.47637 ± 0.00066
- refractive index ([4]; x2 = 0.1978): 1.47035 ± 0.00066
- refractive index ([4]; x2 = 0.2989): 1.46618 ± 0.00065
- refractive index ([4]; x2 = 0.3991): 1.46462 ± 0.00065
- refractive index ([4]; x2 = 0.4991): 1.46284 ± 0.00065
- refractive index ([4]; x2 = 0.5993): 1.45585 ± 0.00065
- refractive index ([4]; x2 = 0.7002): 1.43992 ± 0.00065
- refractive index ([4]; x2 = 0.7999): 1.41722 ± 0.00064
- refractive index ([4]; x2 = 0.9002): 1.39225 ± 0.00064
- refractive index ([4]; x2 = 0.9502): 1.37316 ± 0.00064

SMILES: CCOS(=O)(=O)[O-].CCn1cc[n+](C)c1 [1-ethyl-3-methylimidazolium ethyl sulfate] + COC(=O)OC
- mass density ([3]; x2 = 0): 1236.33 ± 0.8 kg/m3
- mass density ([3]; x2 = 0.0502): 1233.17 ± 0.77 kg/m3
- mass density ([3]; x2 = 0.0999): 1229.81 ± 0.75 kg/m3
- mass density ([3]; x2 = 0.1987): 1223.27 ± 0.71 kg/m3
- mass density ([3]; x2 = 0.2999): 1215.47 ± 0.67 kg/m3
- mass density ([3]; x2 = 0.3994): 1206.15 ± 0.63 kg/m3
- mass density ([3]; x2 = 0.5006): 1194.57 ± 0.59 kg/m3
- mass density ([3]; x2 = 0.5999): 1180.67 ± 0.55 kg/m3
- mass density ([3]; x2 = 0.7001): 1163.11 ± 0.5 kg/m3
- refractive index ([4]; x2 = 0): 1.47908 ± 0.00066
- refractive index ([4]; x2 = 0.0502): 1.47687 ± 0.00066
- refractive index ([4]; x2 = 0.0999): 1.47443 ± 0.00066
- refractive index ([4]; x2 = 0.1987): 1.46971 ± 0.00066
- refractive index ([4]; x2 = 0.2999): 1.46385 ± 0.00065
- refractive index ([4]; x2 = 0.3994): 1.45729 ± 0.00065
- refractive index ([4]; x2 = 0.5006): 1.44906 ± 0.00065
- refractive index ([4]; x2 = 0.5999): 1.43953 ± 0.00065
- refractive index ([4]; x2 = 0.7001): 1.42848 ± 0.00065

SMILES: COC(=O)OC [dimethyl carbonate]
- refractive index [1]: 1.36647 ± 0.00064
- mass density [2]: 1063.28 ± 0.28 kg/m3

SMILES: COC(=O)OC [dimethyl carbonate] + CCCCn1cc[n+](C)c1.F[B-](F)(F)F
- mass density ([3]; x1 = 1): 1063.28 ± 0.28 kg/m3
- refractive index ([4]; x1 = 1): 1.36647 ± 0.00064

SMILES: COC(=O)OC [dimethyl carbonate] + CCOS(=O)(=O)[O-].CCn1cc[n+](C)c1
- mass density ([3]; x1 = 1): 1063.28 ± 0.28 kg/m3
- refractive index ([4]; x1 = 1): 1.36647 ± 0.00064

SMILES: COC(=O)OC [dimethyl carbonate] + CO
- mass density ([3]; x1 = 0.0501): 814.35 ± 0.45 kg/m3
- mass density ([3]; x1 = 0.0997): 838.96 ± 0.41 kg/m3
- mass density ([3]; x1 = 0.2008): 882.51 ± 0.36 kg/m3
- mass density ([3]; x1 = 0.3003): 918.19 ± 0.31 kg/m3
- mass density ([3]; x1 = 0.4002): 948.52 ± 0.27 kg/m3
- mass density ([3]; x1 = 0.5005): 974.63 ± 0.24 kg/m3
- mass density ([3]; x1 = 0.6004): 997.16 ± 0.2 kg/m3
- mass density ([3]; x1 = 0.7015): 1017.04 ± 0.21 kg/m3
- mass density ([3]; x1 = 0.8012): 1034.29 ± 0.23 kg/m3
- mass density ([3]; x1 = 0.8999): 1049.44 ± 0.26 kg/m3
- mass density ([3]; x1 = 0.9483): 1056.31 ± 0.27 kg/m3
- mass density ([3]; x1 = 1): 1063.28 ± 0.28 kg/m3
- refractive index ([4]; x1 = 0.0501): 1.33071 ± 0.00064
- refractive index ([4]; x1 = 0.0997): 1.33427 ± 0.00064
- refractive index ([4]; x1 = 0.2008): 1.34139 ± 0.00064
- refractive index ([4]; x1 = 0.3003): 1.347 ± 0.00064
- refractive index ([4]; x1 = 0.4002): 1.35162 ± 0.00064
- refractive index ([4]; x1 = 0.5005): 1.35583 ± 0.00064
- refractive index ([4]; x1 = 0.6004): 1.35891 ± 0.00064
- refractive index ([4]; x1 = 0.7015): 1.36093 ± 0.00064
- refractive index ([4]; x1 = 0.8012): 1.36336 ± 0.00064
- refractive index ([4]; x1 = 0.8999): 1.36501 ± 0.00064
- refractive index ([4]; x1 = 0.9483): 1.36566 ± 0.00064
- refractive index ([4]; x1 = 1): 1.36647 ± 0.00064

SMILES: CO [methanol]
- refractive index [1]: 1.32668 ± 0.00064
- mass density [2]: 786.72 ± 0.49 kg/m3

SMILES: CO [methanol] + CCCCn1cc[n+](C)c1.F[B-](F)(F)F
- mass density ([3]; x1 = 1): 786.72 ± 0.49 kg/m3
- refractive index ([4]; x1 = 1): 1.32668 ± 0.00064

SMILES: CO [methanol] + CCOS(=O)(=O)[O-].CCn1cc[n+](C)c1
- mass density ([3]; x1 = 1): 786.72 ± 0.49 kg/m3
- refractive index ([4]; x1 = 1): 1.32668 ± 0.00064

SMILES: CO [methanol] + COC(=O)OC
- mass density ([3]; x2 = 0): 786.72 ± 0.49 kg/m3
- refractive index ([4]; x2 = 0): 1.32668 ± 0.00064
